According to US20100227853A1, “INHIBITORS OF CYCLIC AMP PHOSPHODIESTERASES” (Trustees of Boston College, priority 2008, published 2010):

What was measured:
PDE4A1 = molecular target: T1, PDE4A1 (Mus musculus, UniProt O89084); experiment: 5FOA growth assay (high throughput screen, ED50) in fission yeast strain expressing PDE4A1; type: cell-based; details: high throughput 5FOA growth screen; greater than 8.53 = statistically-significant inhibitor
T1 construct: targets used in the assays are full-length proteins (as opposed to simply the catalytic domain); expressed in transfected cells; host or cells: Schizosaccharomyces pombe, PDE gene integrated in place of cgs2
T1 sequence (O89084 1-610 isoform O89084-2): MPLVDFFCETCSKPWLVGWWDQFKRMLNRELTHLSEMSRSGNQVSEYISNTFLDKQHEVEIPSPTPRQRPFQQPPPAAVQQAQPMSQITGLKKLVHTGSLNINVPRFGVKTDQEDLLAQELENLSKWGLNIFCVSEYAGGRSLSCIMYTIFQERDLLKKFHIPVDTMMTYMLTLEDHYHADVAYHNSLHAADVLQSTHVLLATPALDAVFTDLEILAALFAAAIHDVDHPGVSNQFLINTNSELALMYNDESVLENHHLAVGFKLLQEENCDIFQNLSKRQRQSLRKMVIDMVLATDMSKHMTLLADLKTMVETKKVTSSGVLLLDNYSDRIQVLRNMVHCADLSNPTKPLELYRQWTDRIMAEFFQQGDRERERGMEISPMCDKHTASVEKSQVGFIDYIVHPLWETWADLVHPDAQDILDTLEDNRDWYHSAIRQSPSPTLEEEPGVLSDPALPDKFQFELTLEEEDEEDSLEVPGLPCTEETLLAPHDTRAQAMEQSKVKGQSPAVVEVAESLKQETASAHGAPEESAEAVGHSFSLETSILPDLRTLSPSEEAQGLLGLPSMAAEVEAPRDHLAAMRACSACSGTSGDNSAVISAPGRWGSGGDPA
Protocol: (§1) High throughput drug screens were carried out at the Broad Institute's Chemical Biology Program screening facility (Broad Institute, Cambridge, Mass.). Depending upon the strain, cultures were pregrown to exponential phase in EMM complete medium containing from 0.5 to 2.5 mM cAMP to repress fbp1-ura4 transcription. […] Starting cell concentrations ranged from 0.5×10^5 to 4×10^5 cells/ml depending on the screening strain. […] Other positive control dishes contained 5 mM cAMP in the 5FOA medium. Cultures were grown for 48 hours at 30° C., sealed in an airtight container with moist paper towels to prevent evaporation. Optical densities (OD600) of cultures were measured using a microplate reader. Bioinformatic analysis of the results to determine composite Z scores was performed as previously described^30, 31.
(§2) To determine whether the 5FOA growth phenotype could be exploited for high throughput drug screening, strains expressing PDE2A, PDE4A, PDE4B, or PDE8A were pre-grown in EMM medium containing cAMP and then transferred to 5FOA medium in 384 well microtiter plates in the presence or absence of cAMP. OD600 measurements were taken after 48 hours incubation at 30° C.
(§3) Cells were pregrown in EMM medium [MP Biomedicals (Solon, Ohio), 3% glucose, filter-sterilized to avoid carmelization, which would introduce variability into the optical density of the medium] containing from 0 mM to 2.5 mM cAMP (or either 0.5 mM or 1.0 mM cGMP). This was to repress expression of the fbp1-ura4 reporter prior to exposure of cells to 5FOA medium. Cells were grown at 30° C. to exponential phase (approximately 10^7 cells/ml). […] Starting cell concentrations ranged from 0.5×10^5 to 4×10^5 cells/ml depending on the screening strain. […] Other positive control dishes contained 5 mM cAMP in the 5FOA medium for PDEs that lack appropriate control compounds. Cultures were grown for 48 hours at 30° C., sealed in an airtight container with moist paper towels to prevent evaporation. Optical densities (OD600) of cultures were measured using a microplate reader. Bioinformatic analysis of the results to determine composite Z scores was performed as previously described (1, 3).

PDE4B3 = molecular target: T2, PDE4B3 (Mus musculus, UniProt Q8VBU5); experiment: 5FOA growth assay in fission yeast strain expressing PDE4B3; type: cell-based, Murine; details: for Composite Z score, PDE4B3: high throughput 5FOA growth screen
T2 construct: targets used in the assays are full-length proteins (as opposed to simply the catalytic domain); expressed in transfected cells; host or cells: Schizosaccharomyces pombe, PDE gene integrated in place of cgs2
T2 sequence (Q8VBU5 1-721): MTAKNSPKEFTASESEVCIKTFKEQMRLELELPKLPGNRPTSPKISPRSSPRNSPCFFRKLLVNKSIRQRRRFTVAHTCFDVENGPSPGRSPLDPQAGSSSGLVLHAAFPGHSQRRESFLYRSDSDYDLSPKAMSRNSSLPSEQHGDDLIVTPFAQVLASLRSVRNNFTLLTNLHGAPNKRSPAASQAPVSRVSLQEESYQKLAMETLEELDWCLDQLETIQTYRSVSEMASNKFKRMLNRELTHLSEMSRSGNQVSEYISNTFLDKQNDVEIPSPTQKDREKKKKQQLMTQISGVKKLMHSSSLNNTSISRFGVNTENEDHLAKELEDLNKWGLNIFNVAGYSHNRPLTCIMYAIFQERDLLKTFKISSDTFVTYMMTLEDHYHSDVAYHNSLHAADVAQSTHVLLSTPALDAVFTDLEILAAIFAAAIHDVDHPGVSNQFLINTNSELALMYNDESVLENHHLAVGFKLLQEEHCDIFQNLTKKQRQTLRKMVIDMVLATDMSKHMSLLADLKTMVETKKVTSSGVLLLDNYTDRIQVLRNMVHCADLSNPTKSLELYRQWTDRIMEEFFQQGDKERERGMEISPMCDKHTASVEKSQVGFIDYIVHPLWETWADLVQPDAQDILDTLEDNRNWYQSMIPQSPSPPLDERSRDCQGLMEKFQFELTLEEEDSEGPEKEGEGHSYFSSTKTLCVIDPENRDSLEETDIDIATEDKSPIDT
Protocol: as §1, §2, §3

Structure (SMILES) | Composite Z score, PDE4A1 (PDE4A1) | Composite Z score, PDE4B3 (PDE4B3) | 1 Assay (20 uM) 4B3 (PDE4B3; 20 uM)
CCCCNC(=O)c1sc2ncnc(N3CCc4ccccc4C3)c2c1C [Compound 1159K19] | 5.4376 |  | 
N#CC1(c2ccccc2)CCc2c(sc3ncnc(N4CCCC4)c23)C1 (stereo not shown) [Compound 1380I09] | 1.2506 | −1.076 | 
Cc1c(C(=O)NCc2ccco2)sc2ncnc(N3CCN(c4ccccc4)CC3)c12 [Compound 1159G19] | 7.7398 |  | 
Cc1sc2ncnc(NCCc3ccc4c(c3)OCCO4)c2c1C [Compound 1426G17] | 10.127 | 25.393 | 
CCOC(=O)c1sc2ncnc(N3CCc4ccccc4C3)c2c1C [Compound 1379L18] | −0.753 | 1.8207 | 
Cc1nc(N2CC(C)OC(C)C2)c2c3c(sc2n1)CCC3 (stereo not shown) [Compound 1421B05] | 2.1932 | 5.4669 | 
Cc1sc2ncnc(NCc3ccc4c(c3)OCO4)c2c1C [Compound 1426A15] | 1.5745 | 0.9419 | 
Cc1sc2ncnc(NC3CCN(Cc4ccccc4)CC3)c2c1C [Compound 1426C09] | −0.147 | −0.516 | 
CCC(CO)Nc1nc(C)nc2sc3c(c12)CCC3 (stereo not shown) [Compound 1380M03] | −1.217 | −2.398 | 
CC(C)N(C)c1ncnc2sc3c(c12)CCC3 [Compound 1407G21] | 12.819 | 0.0445 | 
c1cn(CCCNc2ncnc3sc4c(c23)CCCC4)cn1 [1435 E20] | 1.6661 | 0.5336 | 
CCOC(=O)c1sc2ncnc(N3CCC4(CC3)OCCO4)c2c1C [Compound 1159G15] | 5.3411 |  | 
c1cncc(CNc2ncnc3sc4c(c23)CCCC4)c1 [Compound 1423I22] | 1.7161 | 0.501 | 
c1nc(N2CCCCC2)c2c3c(sc2n1)CCC3 [Compound 1421A20] | 4.6254 | 4.7765 | 
Cc1c(C(=O)NCC2CCCO2)sc2ncnc(N3CCN(c4ccccc4)CC3)c12 (stereo not shown) [1159 E19] | 1.0613 |  | 
CC(C)(C)C(=O)Nc1ncnc2sc3c(c12)CCCC3 [Compound 1379O22] | 1.5734 | −0.703 | 
O=C(O)C(Cc1ccccc1)Nc1ncnc2sc3c(c12)CCC3 (stereo not shown) [Compound 1381O17] | −0.467 | 0.3352 | 
CCN(CC)c1ncnc2sc(C)c(C)c12 [Compound 1403J21] | 1.647 | 0.0332 | 
Cc1c(C(=O)NCC2CCCO2)sc2ncnc(N3CCN(c4ccccc4F)CC3)c12 (stereo not shown) [Compound 1159M17] | 1.9801 |  | 
COc1ccc(CCNc2ncnc3sc(C)c(C)c23)cc1OC [Compound 1423F01] | 0.9043 | 4.2065 | 
Cc1c(C(=O)N2CCC3(CC2)OCCO3)sc2ncnc(N(C)c3ccccc3)c12 [1393 E07] | 3.1682 | −1.206 | 
Cc1nc(N2CCN(C)CC2)c2c(C)c(C(=O)N3CCN(c4cccc(Cl)c4)CC3)sc2n1 [Compound 1158G03] | −0.078 |  | 

Structure (SMILES) | Composite Z score, PDE4A1 (PDE4A1) | Composite Z score, PDE4B3 (PDE4B3) | 1 Assay (20 uM) 4B3 (PDE4B3; 20 uM)
Cc1nc(NCc2ccco2)c2c3c(sc2n1)CCC3 [Compound 1426I13] | −0.033 | −0.071 | 
CN(C)CCCNc1ncnc2sc3c(c12)CCCC3 [Compound 1414C02] | 1.6456 | 21.25 | 
COC(=O)c1ccccc1NC(=O)c1sc2ncnc(N3CCN(c4ccccn4)CC3)c2c1C [Compound 1159K09] | 0.5937 |  | 
COCCCNC(=O)c1sc2ncnc(N3CCN(c4ccccc4F)CC3)c2c1C [Compound 1159C19] | 2.6846 |  | 
CCNc1nc(C)nc2sc3c(c12)CCCC3 [Compound 1410G03] | 2.9506 | 2.8289 | 
CCN(CC)c1ncnc2sc3c(c12)CCC(C#N)(c1ccccc1)C3 (stereo not shown) [Compound 1380G04] | 20.429 | −0.752 | 
Cc1c(C(=O)NCc2ccccn2)sc2ncnc(N3CCc4ccccc4C3)c12 [Compound 1159O19] | 11.945 |  | 
CC1CCc2c(sc3nc(SCC(N)=O)nc(NCc4ccccc4)c23)C1 (stereo not shown) [Compound 1157L22] | 2.3434 |  | 
CCN(CC)CCCNC(=O)c1sc2ncnc(N3CCN(c4ccc(OC)cc4)CC3)c2c1C [Compound 1158C03] | 2.6937 |  | 
COCCCNC(=O)c1sc2ncnc(N3CCc4ccccc4C3)c2c1C [Compound 1159M19] | 5.0576 |  | 
O=C(Nc1ncnc2sc3c(c12)CCCC3)C(F)(F)F [Compound 1406P09] | 0.1456 | 0.5128 | 
CCN1CCN(c2nc(C)nc3sc4c(c23)CCC4)CC1 [Compound 1414C06] | 1.6242 | 0.632 | 
C=CCNc1ncnc2sc3c(c12)CCCC3 [Compound 1435C20] | 8.4736 | 31.009 | 
COCCNC(=O)c1sc2ncnc(N3CCN(c4ccccn4)CC3)c2c1C [Compound 1159M09] | 1.1811 |  | 
Cc1c(C(=O)NCc2ccco2)sc2ncnc(N3CCN(c4ccccc4F)CC3)c12 [Compound 1159O17] | 3.616 |  | 
N#Cc1sc(C(N)=O)c(-c2ccco2)c1-c1ccco1 [1449, A02] |  |  | 1.8244 ND ND ND ND
COc1cc(NC(=O)c2sc3nc(C)nc(N4CCCCC4C)c3c2C)cc(OC)c1OC (stereo not shown) [Compound 1159M15] | 17.363 |  | 
COc1cc(NC(=O)c2sc3nc(C)nc(N4CCOCC4)c3c2C)cc(OC)c1OC [Compound 1159O09] | 0.8757 |  | 
Cc1c(C(=O)NCc2ccco2)sc2ncnc(N3CCc4ccccc4C3)c12 [Compound 1159I19] | 26.235 |  | 
CCOC(=O)c1sc2nc(CC(=O)OC)nc(NCCN3CCOCC3)c2c1C [Compound 1158A03] | 0.3744 |  | 
Cc1c(C(=O)Nc2ccc3c(c2)OCO3)sc2ncnc(N3CCc4ccccc4C3)c12 [Compound 1159C21] | 3.9976 |  | 
CCOC(=O)CNC(=O)c1sc2ncnc(N3CCN(c4ccccc4F)CC3)c2c1C [Compound 1159A19] | 2.4477 |  | 
